Assay results as given in patent US20250115597A1, “TYK2 INHIBITORS AND COMPOSITIONS AND METHODS THEREOF” (LYNK PHARMACEUTICALS CO. LTD., priority 2021, published 2025).
Like-named read-outs stand apart in the source and are kept apart here.

Legend:
[1] = Microsomal metabolic stability assay; format: in vitro ADME; conditions: pH 7.4, 0.5 mg/mL protein, 1 μM compound
Experimental: Microsomal Metabolic Stability Assay
Microsomes were pre-incubated with test compound or control compounds for 5 min at 37° C. in 100 mM potassium phosphate buffer, pH 7.4, 1.0 mM EDTA. The reaction was initiated by addition of 15 μL of the NADPH regenerating system to 30 μL of each incubation mixture per time point. The final incubation condition was composed of 0.5 mg/mL microsomal protein, 1 μM test article/positive control, 2 mM NADPH. The 0-minute samples were prepared by addition of a 30 μL aliquot of each incubation mixture to 135 μL quench reagent to precipitate proteins. And then a 15 μL aliquot of the NADPH regenerating system was added. At 5, 15, 30 and 45 minutes, the reaction will be stopped by the addition of cold acetonitrile solution containing internal standard. The samples taken at all time points were centrifuged at 5000×g for 15 minutes. 50 μL of supernatant are taken into 96-well assay plates pre-added with 50 μL ultrapure water, and then analyzed by LC/MS/MS.
Concentrations of test articles, control compounds in the samples were determined by using LC/MS/MS method. Plotting of the chromatograms and peak area integrations are carried out by Analyst (AB Sciex).
n the determination of the in vitro elimination constant (ke) of the control compounds, the analyte/internal standard peak area ratios will be converted to percentage remaining (% Remaining) with the following equation: […]
The slope was measured by the natural logarithm of the percentage of the residual compound and time, T1/2 was calculated according to the following formula.

[2] = biological target: T1, Ba/F3-FL-TYK2-P760L cells (Homo sapiens, UniProt P29597, P760L, cells depend on it); assay: Anti-proliferative assay, Ba/F3-FL-TYK2-P760L cells (Cell-Titer Glo); format: cell-based; conditions: 72 h, read-out: BaF3-FL-T2P760L IC50
T1 construct: BaF3-FL-T2P760L (nM)
T1 sequence (P29597 whole entry P760L): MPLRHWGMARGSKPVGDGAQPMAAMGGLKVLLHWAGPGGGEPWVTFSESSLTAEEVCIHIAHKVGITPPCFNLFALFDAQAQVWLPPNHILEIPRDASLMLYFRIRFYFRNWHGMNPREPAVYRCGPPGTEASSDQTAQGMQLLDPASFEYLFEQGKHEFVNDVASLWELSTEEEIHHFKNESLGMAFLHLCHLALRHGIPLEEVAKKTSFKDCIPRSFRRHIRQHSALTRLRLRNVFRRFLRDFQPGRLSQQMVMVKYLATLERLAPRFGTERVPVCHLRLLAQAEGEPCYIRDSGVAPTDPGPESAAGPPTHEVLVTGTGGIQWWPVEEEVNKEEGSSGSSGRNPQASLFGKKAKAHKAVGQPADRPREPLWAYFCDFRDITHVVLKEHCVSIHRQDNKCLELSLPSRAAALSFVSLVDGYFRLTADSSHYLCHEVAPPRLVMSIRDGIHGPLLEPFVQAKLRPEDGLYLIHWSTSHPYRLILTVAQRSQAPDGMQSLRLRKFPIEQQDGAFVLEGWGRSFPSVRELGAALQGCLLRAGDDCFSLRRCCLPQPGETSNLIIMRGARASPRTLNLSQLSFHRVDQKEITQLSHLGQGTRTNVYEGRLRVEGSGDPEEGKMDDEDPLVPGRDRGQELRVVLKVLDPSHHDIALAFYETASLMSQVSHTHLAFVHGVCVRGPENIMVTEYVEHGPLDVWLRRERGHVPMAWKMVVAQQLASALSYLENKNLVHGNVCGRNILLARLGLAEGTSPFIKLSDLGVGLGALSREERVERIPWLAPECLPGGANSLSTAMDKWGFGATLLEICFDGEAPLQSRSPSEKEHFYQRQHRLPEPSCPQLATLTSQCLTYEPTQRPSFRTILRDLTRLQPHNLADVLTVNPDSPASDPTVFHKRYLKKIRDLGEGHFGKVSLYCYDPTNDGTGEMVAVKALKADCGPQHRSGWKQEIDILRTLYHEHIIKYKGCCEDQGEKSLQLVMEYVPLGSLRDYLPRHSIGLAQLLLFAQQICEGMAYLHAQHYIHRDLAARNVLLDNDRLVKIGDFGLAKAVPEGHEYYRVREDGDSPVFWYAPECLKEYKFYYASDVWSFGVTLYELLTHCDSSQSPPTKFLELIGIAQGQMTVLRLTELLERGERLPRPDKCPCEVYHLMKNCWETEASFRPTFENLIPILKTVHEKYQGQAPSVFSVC
Summary of the method: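 Ba/F3 cells made IL-3-independent by TEL-fused or full-length mutant JAK-family kinases, seeded at 2000/well and dosed after 24 h with 9 three-fold dilutions topping at 20 μM. Viability after 72 h at 37 °C, 5% CO2 by Cell-Titer Glo ATP luminescence.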

[3] = dog liver microsomes, read-out: Dog LM Clint
[4] = dog liver microsomes, read-out: Dog LM T½
[5] = human liver microsomes, read-out: Human LM Clint
[6] = human liver microsomes, read-out: Human LM T½
[7] = rat liver microsomes, read-out: Rat LM Clint
[8] = rat liver microsomes, read-out: Rat LM T½

Row | microsomal CLint at 1 μM [1, 3] | half-life at 1 μM [1, 4] | microsomal CLint at 1 μM [1, 5] | half-life at 1 μM [1, 6] | microsomal CLint at 1 μM [1, 7] | half-life at 1 μM [1, 8] | GI50 [2] | SMILES
1 | 30.4 µL/min/mg | 45.6 min | 12.7 µL/min/mg | 110 min | 7.43 µL/min/mg | 187 min | 30 nM | [2H]C([2H])([2H])NC(=O)c1cnc2cc1Nc1cc(cc(-c3ncn(C)n3)c1OC)COCc1nc(ccc1C)N2 [Example 70, 10-Methoxy-N-(methyl-d3)-18-methyl-11-(1-methyl-1H-1,2,4-triazol-3-yl)-15-oxa-2,4,8,21-tetraazatetracyclo[15.3.1.1^{3,7}.1^{9,13}]tricosa-1(20),3,5,7(23),9(22),10,12,17(21),18-nonaene-6-carboxamide]
2 | 16.2 µL/min/mg | 85.6 min | 16.9 µL/min/mg | 82.2 min | 87 µL/min/mg | 15.9 min | 249 nM | [2H]C([2H])([2H])NC(=O)c1nnc2cc1Nc1cc(cc(-c3ncn(C)n3)c1OC)CN(C)Cc1nc(ccc1F)N2 [Example 72, 18-Fluoro-10-methoxy-N-(methyl-d3)-15-methyl-11-(1-methyl-1H-1,2,4-triazol-3-yl)-2,4,5,8,15,21-hexaazatetracyclo[15.3.1.1^{3,7}.1^{9,13}]tricosa-1(20),3,5,7(23),9(22),10,12,17(21),18-nonaene-6-carboxamide]
3 | 108 µL/min/mg | 12.9 min | 17.5 µL/min/mg | 79.4 min | 161 µL/min/mg | 8.61 min | 93.5 nM | [2H]C([2H])([2H])NC(=O)c1nnc2cc1Nc1cc(cc(-c3ccn(C)n3)c1OC)COCc1nc(ccc1F)N2 [Example 74, 18-Fluoro-10-methoxy-N-(methyl-d3)-11-(1-methyl-1H-pyrazol-3-yl)-15-oxa-2,4,5,8,21-pentaazatetracyclo[15.3.1.1^{3,7}.1^{9,13}]tricosa-1(20),3,5,7(23),9(22),10,12,17(21),18-nonaene-6-carboxamide]
4 | 37.7 µL/min/mg | 36.8 min | 21.8 µL/min/mg | 63.6 min | 22.6 µL/min/mg | 61.2 min | 108 nM | [2H]C([2H])([2H])NC(=O)c1nnc2cc1Nc1cc(cc(-n3cnc(C)n3)c1OC)COCc1nc(ccc1F)N2 [Example 75, 18-Fluoro-10-methoxy-N-(methyl-d3)-11-(3-methyl-1H-1,2,4-triazol-1-yl)-15-oxa-2,4,5,8,21-pentaazatetracyclo[15.3.1.1^{3,7}.1^{9,13}]tricosa-1(20),3,5,7(23),9(22),10,12,17(21),18-nonaene-6-carboxamide]
5 | 12.3 µL/min/mg | 113 min | 20.5 µL/min/mg | 67.5 min | 19.6 µL/min/mg | 70.7 min | 58.7 nM | [2H]C([2H])([2H])NC(=O)c1cnc2nc1Nc1cc(cc(-c3ncn(C)n3)c1OC)COCc1cc(ccc1F)N2 [Example 76, 18-Fluoro-10-methoxy-N-(methyl-d3)-11-(1-methyl-1H-1,2,4-triazol-3-yl)-15-oxa-2,4,8,23-tetraazatetracyclo[15.3.1.1^{3,7}.1^{9,13}]tricosa-1(20),3,5,7(23),9(22),10,12,17(21),18-nonaene-6-carboxamide]
6 | 15.4 µL/min/mg | 90.2 min | 4.59 µL/min/mg | 302 min | 12.2 µL/min/mg | 114 min | 61.1 nM | [2H]C([2H])([2H])NC(=O)c1cnc2cc1Nc1cc(cc(-c3ncn(C)n3)c1OC)COCc1cc(F)cc(n1)N2 [Example 77, 19-Fluoro-10-methoxy-N-(methyl-d3)-11-(1-methyl-1H-1,2,4-triazol-3-yl)-15-oxa-2,4,8,21-tetraazatetracyclo[15.3.1.1^{3,7}.1^{9,13}]tricosa-1(21),3,5,7(23),9(22),10,12,17,19-nonaene-6-carboxamide]
7 | 8.5 µL/min/mg | 163 min | 22 µL/min/mg | 63 min | 21.4 µL/min/mg | 64.7 min | 46.5 nM | [2H]C([2H])([2H])NC(=O)c1cnc2nc1Nc1cc(cc(-c3ncn(C)n3)c1OC)COCc1cc(cc(F)c1F)N2 [Example 78, 18,19-Difluoro-10-methoxy-N-(methyl-d3)-11-(1-methyl-1H-1,2,4-triazol-3-yl)-15-oxa-2,4,8,23-tetraazatetracyclo[15.3.1.1^{3,7}.1^{9,13}]tricosa-1(20),3,5,7(23),9(22),10,12,17(21),18-nonaene-6-carboxamide]
8 | 8.97 µL/min/mg | 155 min | 27.8 µL/min/mg | 50 min | 26.2 µL/min/mg | 52.9 min | 40.3 nM | [2H]C([2H])([2H])NC(=O)c1cnc2nc1Nc1cc(cc(-c3ncn(C)n3)c1OC)COCc1cc(F)cc(c1)N2 [Example 79, 19-Fluoro-10-methoxy-N-(methyl-d3)-11-(1-methyl-1H-1,2,4-triazol-3-yl)-15-oxa-2,4,8,23-tetraazatetracyclo[15.3.1.1^{3,7}.1^{9,13}]tricosa-1(21),3,5,7(23),9(22),10,12,17,19-nonaene-6-carboxamide]
9 | 17.8 µL/min/mg | 78 min | < 11.5 µL/min/mg | > 120 min | 20.1 µL/min/mg | 69 min | 64.3 nM | [2H]C([2H])([2H])NC(=O)c1nnc2cc1Nc1cc(cc(-c3ncn(C4CC4)n3)c1OC)COCc1nc(ccc1F)N2 [Example 82, 11-(1-Cyclopropyl-1H-1,2,4-triazol-3-yl)-18-fluoro-10-methoxy-N-(methyl-d3)-15-oxa-2,4,5,8,21-pentaazatetracyclo[15.3.1.1^{3,7}.1^{9,13}]tricosa-1(20),3,5,7(23),9(22),10,12,17(21),18-nonaene-6-carboxamide]
10 | 20 µL/min/mg | 69.4 min | < 11.5 µL/min/mg | > 120 min | < 11.5 µL/min/mg | > 120 min | 139 nM | [2H]C([2H])([2H])NC(=O)c1cnc2cc1Nc1cc(cc(-c3ncc(F)cn3)c1OC)COCc1nc(ccc1F)N2 [Example 86, 18-Fluoro-11-(5-fluoropyrimidin-2-yl)-10-methoxy-N-(methyl-d3)-15-oxa-2,4,8,21-tetraazatetracyclo[15.3.1.1^{3,7}.1^{9,13}]tricosa-1(20),3,5,7(23),9(22),10,12,17(21),18-nonaene-6-carboxamide]
11 | < 11.5 µL/min/mg | > 120 min | < 11.5 µL/min/mg | > 120 min | < 11.5 µL/min/mg | > 120 min | 53.1 nM | [2H]C([2H])([2H])NC(=O)c1cnc2cc1Nc1cc(cc(-c3ncc(OC)cn3)c1OC)COCc1nc(ccc1F)N2 [Example 95, 18-Fluoro-10-methoxy-11-(5-methoxypyrimidin-2-yl)-N-(methyl-d3)-15-oxa-2,4,8,21-tetraazatetracyclo[15.3.1.1^{3,7}.1^{9,13}]tricosa-1(20),3,5,7(23),9(22),10,12,17(21),18-nonaene-6-carboxamide]
12 | 37.3 µL/min/mg | 37.2 min | 32.6 µL/min/mg | 42.5 min | 114 µL/min/mg | 12.1 min | 488 nM | CCn1ccc2c(c(Nc3cc(Nc4ncc(F)cc4F)ncc3C(=O)NC)cn2C)c1=O [Example 98, 6-((3,5-Difluoropyridin-2-yl)amino)-4-((5-ethyl-1-methyl-4-oxo-4,5-dihydro-1H-pyrrolo[3,2-c]pyridin-3-yl)amino)-N-methylnicotinamide]
13 | 33.1 µL/min/mg | 105 min | 89.9 µL/min/mg | 38.5 min | 181 µL/min/mg | 19.1 min | 56.7 nM | [2H]C([2H])([2H])NC(=O)c1cnc(Nc2ccc(F)cn2)cc1Nc1cn(C)c2ccn(CC)c(=O)c12 [Example 99, 4-[(5-Ethyl-1-methyl-4-oxo-pyrrolo[3,2-c]pyridin-3-yl)amino]-6-[(5-fluoro-2-pyridyl)amino]-N-(methyl-d3)pyridine-3-carboxamide]
